The text below walks through data of patent US6645957B2, “Cyclic amide compound” (Kowa Co., Ltd., priority 1998, dated 2003).

Broadly, the inhibition is the share of the control response that was lost under treatment.

Molecules are shown by their SMILES. Structures can show the parent of a compound that is named as a salt.

The subject of this assay is production of IgE antibody. Put plainly: Evaluation of inhibitory effect on production of IgE antibody (mouse splenic B cells, LPS + IL-4, ELISA). Format: cell-based. The conditions noted are these: B-cell, 168 h; test agent 10^−6 M; mouse (Balb/C) B cells cultured with LPS then mouse IL-4 for 7 days; IgE in culture supernatant by ELISA. As to the method: A spleen was enucleated from a mouse (Balb/C, male, aged 8 weeks) and shredded in 0.3% BSA/HBSS to prepare single cells by means of a 200-mesh screen. Further, the single cells were hemolyzed by 0.75% ammonium chloride-17 mM Tris solution to prepare a splenocyte suspension (1×10^7/ml) using RPMI 1640 medium/25 mM HEPES/0.3% BSA. After the suspension was reacted with a rat anti-mouse Thy-1,2 monoclonal antibody (product of Cedarlane Co.) at 4° C. for 1 hour, the reaction mixture was centrifuged, and the sediment cells were suspended again (1×10^7/ml, RPMI/HEPES/BSA). After the suspension was then reacted with a low-cytotoxic rabbit complement (product of Cedarlane Co.) at 37° C. for 1 hour, killed cells were removed by specific gravity centrifugation using lympholyte M (product of Cedarlane Co.) to obtain a B cell fraction as viable cells.
After B cells (10^5/0.2 ml/well) were cultured for a day together with LPS (E. coli 026:B6, product of DIFCO Co.) using a 96-well plate, mouse IL-4 (product of Genzyme Co.) was added to conduct culture further for 7 days.
Each test agent was added on the first day of the culture, and the amount of IgE in a culture supernatant was measured by ELISA after the culture, thereby calculating out the inhibitory effect of the agent on the production of an IgE antibody.
Turning to `COc1cc(/C=C/C=C/C(=O)N2CCN(CCCN3CCN(C(=O)/C=C/C=C/c4cc(OC)c(OC)c(OC)c4)CC3)CC2)cc(OC)c1OC` [Example 3, 1,3-bis[4-[(E,E)-5-(3,4,5-Trimethoxyphenyl)-2,4-pentadienoyl]-1-piperazinyl]propane Dihydrochloride], the inhibition at 1 µM was 100%.
Next, `COc1cc(-c2ccc(C(=O)N3CCN(CCCN4CCN(C(=O)c5ccc(-c6cc(OC)c(OC)c(OC)c6)cc5)CC4)CC3)cc2)cc(OC)c1OC` [Example 5, 1,3-bis[4-[4-(3,4,5-Trimethoxyphenyl)-benzoyl]-1-piperazinyl]propane Dihydrochloride]: 95%; `COc1cc(C#C/C=C/C(=O)N2CCN(CCCN3CCN(C(=O)/C=C/C#Cc4cc(OC)c(OC)c(OC)c4)CC3)CC2)cc(OC)c1OC` [Example 6, 1,3-bis[4-[(E)-5-(3,4,5-Trimethoxyphenyl)-2-penten-4-ynoyl]-1-piperazinyl]propane Dihydrochloride]: 95%.
Next, `CC(C)(C)c1ccc(/C=C/C=C/C(=O)N2CCN(CCCCCCCCN3CCN(C(=O)/C=C/C=C/c4ccc(C(C)(C)C)cc4)CC3)CC2)cc1` [Example 12, 1,8-bis[4-[(E,E)-5-(4-tert-Butylphenyl)-2,4-pentadienoyl]-1-piperazinyl]octane Dihydrochloride]: 90%; `CSc1ncccc1/C=C/C=C/C(=O)N1CCN(CCCCCCCCN2CCN(C(=O)/C=C/C=C/c3cccnc3SC)CC2)CC1` [Example 13, 1,8-bis[4-[(E,E)-5-(2-Methylthio-3-pyridyl)-2,4-pentadienoyl]-1-piperazinyl]octane Dihydrochloride]: 95%.
Then `COc1cc(-c2ccc(C(=O)N3CCN(Cc4ccc(CN5CCN(C(=O)c6ccc(-c7cc(OC)c(OC)c(OC)c7)cc6)CC5)cc4)CC3)cc2)cc(OC)c1OC` [Example 16, 1,4-bis[[4-[4-(3,4,5-Trimethoxyphenyl)benzoyl]-1-piperazinyl]methyl]benzene Dihydrochloride], with 65%.
For the compound `O=C(/C=C/c1ccc2ccccc2c1)N1CCN(Cc2cccc(CN3CCN(C(=O)/C=C/c4ccc5ccccc5c4)CC3)n2)CC1` [Example 20, 2,6-bis[[4-[(E)-3-(2-Naphthyl)-2-propenoyl]-1-piperazinyl]methyl]pyridine], the inhibition at 1 µM is 75%.
As to `COc1cc(-c2ccc(C(=O)N3CCCN(CCCN4CCCN(C(=O)c5ccc(-c6cc(OC)c(OC)c(OC)c6)cc5)CC4)CC3)cc2)cc(OC)c1OC` [Example 23, 1,1′-Trimethylenedi[4-[4-(3,4,5-trimethoxyphenyl)benzoyl]hexahydro-1,4-diazepine]dihydrochloride], the inhibition at 1 µM stood at 85%.
With `COc1cc2c(cc1OC)C(C)(C)C(/C=C/C(=O)N1CCC(CCCC3CCN(C(=O)/C=C/C4=Cc5cc(OC)c(OC)cc5C4(C)C)CC3)CC1)=C2` [Example 27, 1,3-bis[1-[(E)-3-(5,6-Dimethoxy-1,1-dimethyl-2-indenyl)-2-propenoyl]-4-piperidinyl]propane], the inhibition at 1 µM amounted to 100%.
For the compound `COc1cc(-c2cc(C(=O)N3CCC(CC(CC4CCN(C(=O)c5ccc(C)c(-c6cc(OC)c(OC)c(OC)c6)c5)CC4)N(C)C)CC3)ccc2C)cc(OC)c1OC` [Example 30, 1,3-bis[1-[4-Methyl-3-(3,4,5-trimethoxyphenyl)benzoyl]-4-piperidinyl]-2-(dimethylamino)propane Hydrochloride], the inhibition at 1 µM came out at 100%.
Then `COc1cc(C#C/C=C/C(=O)N2CCC(CC(CC3CCN(C(=O)/C=C/C#Cc4cc(OC)c(OC)c(OC)c4)CC3)CN(C)C)CC2)cc(OC)c1OC` [Example 33, 1,3-bis[1-[(E)-5-(3,4,5-Trimethoxyphenyl)-2-penten-4-ynoyl]-4-piperidinyl]-2-[(dimethylamino)methyl]propane Hydrochloride], with 100%; and `COc1cc2ccc(/C=C/C(=O)N3CCC(CN(C)CC4CCN(C(=O)/C=C/c5ccc6cc(OC)c(OC)c(OC)c6c5)CC4)CC3)cc2c(OC)c1OC` [Example 36, N,N-bis[[1-[(E)-3-(6,7,8-Trimethoxy-2-naphthyl)-2-propenoyl]-4-piperidinyl]methyl]methylamine Hydrochloride], with 60%; and `COc1cc(-c2ccc(C(=O)N3CCC(N(C)CCN(C)C4CCN(C(=O)c5ccc(-c6cc(OC)c(OC)c(OC)c6)cc5)CC4)CC3)cc2)cc(OC)c1OC` [Example 37, N,N′-bis[1-[4-(3,4,5-Trimethoxyphenyl)benzoyl]-4-piperidinyl]-N,N′-dimethylethylenediamine Dihydrochloride], with 100%.
Turning to `COc1ccc(C(=O)N2CCC(CN3CCN(CC4CCN(C(=O)c5ccc(OC)c(-c6cc(OC)c(OC)c(OC)c6)c5)CC4)CC3)CC2)cc1-c1cc(OC)c(OC)c(OC)c1` [Example 40, 1,4-bis[[1-[4-Methoxy-3-(3,4,5-trimethoxyphenyl)benzoyl]-4-piperidinyl]methyl]piperazine Dihydrochloride], the inhibition at 1 µM turned out to be 75%.
